The record followed here is BindingDB's records for doi:10.1016/0014-2999(95)00786-5 (Cnrs Upr 9023, 1996).

Test [1] deals with 5-hydroxytryptamine receptor 4 (Homo sapiens, UniProt Q13639).
The target in test [2] is 5-hydroxytryptamine receptor 4 (Mus musculus, UniProt P97288).

“And” between values parts separate entries of the source, which are not always exact repeats. Equal entries are not always repeated. Structures can show the parent of a compound that is named as a salt.

Sequence of 5-hydroxytryptamine receptor 4 (Homo sapiens, UniProt Q13639) (Q13639 whole entry): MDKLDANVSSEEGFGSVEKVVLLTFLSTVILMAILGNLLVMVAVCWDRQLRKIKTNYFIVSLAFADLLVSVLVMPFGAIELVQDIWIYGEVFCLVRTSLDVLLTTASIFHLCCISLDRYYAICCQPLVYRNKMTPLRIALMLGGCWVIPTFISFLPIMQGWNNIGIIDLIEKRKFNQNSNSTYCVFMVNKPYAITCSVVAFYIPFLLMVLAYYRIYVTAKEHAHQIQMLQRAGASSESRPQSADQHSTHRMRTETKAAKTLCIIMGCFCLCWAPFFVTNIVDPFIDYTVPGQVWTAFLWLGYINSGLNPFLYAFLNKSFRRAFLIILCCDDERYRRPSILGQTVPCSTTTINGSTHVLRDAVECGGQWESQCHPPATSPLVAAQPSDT
Sequence of 5-hydroxytryptamine receptor 4 (Mus musculus, UniProt P97288) (P97288 whole entry): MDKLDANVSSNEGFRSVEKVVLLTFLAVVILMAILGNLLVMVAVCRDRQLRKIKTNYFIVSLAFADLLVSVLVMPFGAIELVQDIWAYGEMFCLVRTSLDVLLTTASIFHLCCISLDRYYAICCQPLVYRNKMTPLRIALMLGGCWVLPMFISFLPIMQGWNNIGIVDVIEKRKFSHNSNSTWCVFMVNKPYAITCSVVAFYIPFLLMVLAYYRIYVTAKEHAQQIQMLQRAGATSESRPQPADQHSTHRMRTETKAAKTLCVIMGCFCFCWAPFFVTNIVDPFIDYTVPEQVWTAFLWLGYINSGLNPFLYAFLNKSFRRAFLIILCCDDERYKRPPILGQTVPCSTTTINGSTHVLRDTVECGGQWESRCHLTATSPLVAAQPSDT

As for `CN1C2CCC1CC(OC(=O)c1c[nH]c3ccccc13)C2` (stereo not drawn), the Ki is 200 nM in test [1] and 158 nM in test [2].
`COc1ccc2[nH]cc(C3=CCCNC3)c2c1` came in with a Ki in test [2] of 603 nM.
Still for that read-out and setting: then `COc1cc(N)c(Cl)cc1C(=O)NC1CCN(CCCC(=O)N2CCC(N(C)C)CC2)CC1OC` (stereo not drawn) [4-Amino-5-chloro-N-(1-{4-[4-(dimethylamino)-1-piperidinyl]-4-oxobutyl}-3-methoxy-4-piperidinyl)-2-methoxybenzamide], with 1.38 nM; and `COc1cc(N)c(Cl)cc1C(=O)NC1CCN(Cc2ccccc2)CC1` [4-Amino-N-(1-benzyl-piperidin-4-yl)-5-chloro-2-methoxy-benzamide(Clebopride)], with 53.7 nM; and `COc1cc(N)c(Cl)cc1C(=O)NC1CCN(CCCOc2ccc(F)cc2)CC1OC` (stereo not drawn) [4-amino-5-chloro-N-(1-(3-(4-fluorophenoxy)propyl)-3-methoxypiperidin-4-yl)-2-methoxybenzamide], with 51.3 nM.
Same read-out and setting: the figure for `CCN(CC)CCNC(=O)c1cc(Cl)c(N)cc1OC` [4-amino-5-chloro-N-[2-(diethylamino)ethyl]-2-methoxy-benzamide;hydrochloride] is 3980 nM; for `CCn1c(=O)n(C(=O)NC2CC3CCC(C2)N3C)c2ccccc21` (stereo not drawn) [BIMU 1] it is 53.7 nM.
Take `CC(C)n1c(=O)n(C(=O)NC2C[C@H]3CC[C@@H](C2)N3C)c2ccccc21` (stereo partly drawn) [BIMU 8]: the Ki was 79.4 nM in test [1] and 25.1 nM in test [2].
For `CN1C2CCC1CC(NC(=O)n1c(=O)[nH]c3ccccc31)C2` (stereo not drawn) [DAU 6215], the Ki in test [2] was 224 nM.
As for `COc1ccc2[nH]c(=O)n(C(=O)OC3CC4CCC(C3)N4C)c2c1` (stereo not drawn) [DAU 6285], the Ki came to 63.1 nM in test [1] and 26.9 nM in test [2].
For `Cn1cc(C(=O)OCC2CCN(CCNS(C)(=O)=O)CC2)c2ccccc21` [GR 113808], the Ki in test [2] came out at 0.31 nM.
Still for that read-out and setting: then `COc1[nH]c2ccc(F)cc2c1C(=O)OCC1CCN(CCNS(C)(=O)=O)CC1` [GR-125487], with 0.03 nM; and `COc1cc(N)c(Cl)cc1C(=O)NC1CCN2CCCC1C2` (stereo not drawn) [NSC_3035240], with 97.7 nM; and `CCCC[N+]12CCC(C1)C(NC(=O)c1cc(Cl)c(N)cc1OC)CC2` (stereo not drawn) [SB205149], with 37.1 nM.
Turning to `CCN(CC)CCOC(=O)c1cc(Cl)c(N)cc1OC` [SDZ-205557], the Ki in test [1] and in test [2] was 6.3 nM in each case.
In the case of `COc1cc(N)c(Cl)cc1C(=O)NC1CN2CCC1CC2` (stereo not drawn) [ZACOPRIDE,R], the Ki in test [2] was 1070 nM and 302 nM and 224 nM.
For the molecule `NCCc1c[nH]c2ccc(O)cc12` [[3H]-5-HT], in test [2], affinity was put at a Ki of 79.4 nM.
For the molecule `COc1ccc2[nH]cc(CCN)c2c1` [tryptamine, 5-Methoxy], the Ki in test [1] was determined as 501 nM; in test [2], 525 nM.
